{"source": "patent US20090149540A1", "about": "“Compositions and Methods for Attenuating Mitochondria-Mediated Cell Injury” (priority 2005, published 2009)", "key": {"[1]": {"settings": "radioactive tracer studies in whole animals; cited from earlier work"}, "[2]": {"system": "entire mitochondrial protein extract", "assay": "Biotin-switch analysis of mitochondrial protein S-nitrosation", "format": "biochemical, rat", "settings": "for S-nitrosation of mitochondrial protein, comparison of NO* donors: entire mitochondrial protein extract", "description": "(§1) Rat heart mitochondria were isolated using differential centrifugation (Tompkins, et al. (2005) Biochim. Biophys. Acta PMID: 16278076). Protein was determined by the Folin-phenol method (Lowry, et al. (1951) J. Bio. Chem. 193:265-75) against a standard curve constructed using bovine serum albumin. Mitochondrial incubations and all subsequent steps were performed in the dark. One mg of mitochondrial protein was suspended in 1 mL of mitochondrial respiration buffer (Tompkins, et al. (2005) supra) containing respiratory substrates glutamate (5 mM), malate (2.5 mM) and succinate (5 mM). […] Samples were centrifuged (5 minutes, 14,000×g), and supernatants removed. The pellets were then resuspended in 1 mL of respiration buffer, and centrifuged again. Pellets were frozen in liquid N2 for subsequent analysis. For ONOO^− treatments, 4 μL of 25 mM ONOO^− stock (100 μM final concentration) was added the cap of the reaction tube, the cap quickly closed and the tube shaken immediately. The process was then repeated twice at 30 second intervals, for a total of 3 additions. Mitochondria were then pelleted, washed, and frozen as for S-nitrosoglutathione samples. Complex I activity was assayed as the rotenone-sensitive oxidation of NADH, at 340 nm in the presence of coenzyme Q1 (Borutaite, et al. (2000) supra). Complex IV was assayed by monitoring the cyanide-sensitive first-order oxidation of reduced cytochrome c, at 550 nm according to established methods (Cleeter, et al. (1994) supra).\nFor biotin-switch analysis, intact mitochondrial pellets (1 mg protein solubilized in extraction buffer) or chromatography column fractions were analyzed in accordance with known methods (Jaffrey & Snyder (2001) supra). Samples were separated in duplicate on non-reducing SDS-PAGE gels; half the gel was stained with COOMASSIE® blue, and the other half blotted and probed with streptavidin-HRP and ECL™ detection (GE biosciences) Blots and stained gels were aligned, and S-nitrosated proteins excised, trypsinized, and identified by peptide mass fingerprinting. Mass spectra (MALDI-TOF) were analyzed using the MASCOT™ algorithm available on the world-wide web at matrixscience.com."}, "[3]": {"system": "isolated adult rat cardiomyocytes", "assay": "Cardiomyocyte model of ischemia-reperfusion injury, cell viability by Trypan blue exclusion", "format": "cell-based", "settings": "10 μM or 20 μM; 1 hour ischemia, 30 minutes reoxygenation", "description": "Isolated adult rat cardiomyocytes were subjected to 1 hour ischemia (anoxic, glucose free medium, pH 6.5) followed by 30 minutes reoxygenation (labeled “HR”). Cell viability was assayed by Trypan blue exclusion. […] All data are means±SEM, N>3.\nAdult rat cardiomyocytes were prepared by collagenase perfusion according to standard methods (Dai, et al. (2001) supra), yielding ˜4×10^6 cells per heart, >80% rod-shaped and viable. Incubations were in a shaking water bath at 37° C., each utilizing 5×10^5 cells in 5 mL of the KH buffers described below. For the control, cells were incubated for 2 hours in oxygenated KH buffer (95/5 O2/CO2). For ischemia-reperfusion treatment, cells were subjected to 30 minutes in oxygenated KH buffer, 1 hour in “ischemic” KH buffer (95/5 N2/CO2, pH 6.5, no glucose), and 30 minutes in oxygenated KH buffer. For the ischemia-reperfusion injury and test compound group of cells, ischemia-reperfusion injury was carried out as described above with test compound present during the 30 minute equilibration prior to ischemia-reperfusion and absent during ischemia. […] At the end of each protocol, cell viability was assayed (Trypan blue), and mitochondrial function determined (measurement of ΔΨm with the fluorescent probe TMRE, respiration with an O2 electrode, and S-nitrosothiol content by chemiluminescence and biotin-switch."}, "[4]": {"system": "isolated mitochondria", "assay": "Chemiluminescent NO analysis of total S-nitrosothiol in isolated mitochondria", "format": "biochemical, rat", "description": "At concentrations above 250 μM, secondary reactions such as free S-nitrosothiol or NO2^− formation were observed.\nas §1\nChemiluminescent analysis of S-nitrosothiol content was performed on samples originating from blue-native gels, intact mitochondria and SUPEROSE™ 6 chromatography fractions, according to known methodologies (Yang, et al. (2003) Free Radic. Res. 37:1-10). […] Each sample was run in duplicate and quantified using a standard curve created with known concentrations of NaNO2."}, "[5]": {"molecular_target": "T1, mitochondrial complex I (Rattus norvegicus, UniProt Q66HF1)", "T1 construct": "Rat heart mitochondria were isolated using differential centrifugation; from tissue; host or cells: rat heart mitochondria (male Sprague-Dawley rats)", "T1 sequence (Q66HF1 24-727, one chain of several)": "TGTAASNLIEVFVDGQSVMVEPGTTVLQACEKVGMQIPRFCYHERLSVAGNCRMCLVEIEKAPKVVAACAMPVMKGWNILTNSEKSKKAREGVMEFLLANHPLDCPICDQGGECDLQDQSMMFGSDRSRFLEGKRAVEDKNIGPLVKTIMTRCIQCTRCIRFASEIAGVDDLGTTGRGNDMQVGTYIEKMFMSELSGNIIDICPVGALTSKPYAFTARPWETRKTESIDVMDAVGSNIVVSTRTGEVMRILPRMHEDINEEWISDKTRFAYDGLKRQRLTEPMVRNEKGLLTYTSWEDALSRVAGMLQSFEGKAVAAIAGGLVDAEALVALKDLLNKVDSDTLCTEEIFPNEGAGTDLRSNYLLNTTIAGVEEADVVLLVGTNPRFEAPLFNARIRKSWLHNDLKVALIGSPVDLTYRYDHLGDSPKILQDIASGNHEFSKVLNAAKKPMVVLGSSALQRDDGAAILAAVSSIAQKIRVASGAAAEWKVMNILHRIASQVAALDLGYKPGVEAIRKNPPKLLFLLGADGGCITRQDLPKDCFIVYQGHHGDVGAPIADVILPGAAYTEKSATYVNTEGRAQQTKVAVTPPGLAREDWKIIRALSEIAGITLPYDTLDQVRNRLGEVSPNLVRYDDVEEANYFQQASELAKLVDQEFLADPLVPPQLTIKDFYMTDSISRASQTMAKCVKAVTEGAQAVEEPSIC", "assay": "Complex I activity (rotenone-sensitive NADH/Co-Q1 oxidation/reduction) in treated mitochondria", "format": "biochemical", "settings": "S-nitrosoglutathione treatment of mitochondria; exposure to light", "text": "Assuming heart mitochondria contain ˜50 pmol complex I per mg protein (Schagger & Pfeiffer (2001) J. Biol. Chem. 276:37861-37867), it was observed that S-nitrosation plateaud at a ˜7:1 mol/mol ratio (i.e., 7 mols S-nitrosothiol per mol complex I), while maximum complex I inhibition was ˜20-25%. This apparent mis-match between the stoichiometry of S-nitrosation (7:1) and the degree of inhibition (25%) may reflect S-nitrosation of complex I on multiple subunits. Alternatively, since the spectrophotometric complex I activity assay was performed at 340 nm, close to the absorption maxima of S-nitrosothiols (335 nm), S-nitrosothiols within complex I may have been destroyed during the assay, leading to underestimation of inhibition by S-nitrosation.\nRat heart mitochondria were isolated using differential centrifugation (Tompkins, et al. (2005) Biochim. Biophys. Acta PMID: 16278076). Protein was determined by the Folin-phenol method (Lowry, et al. (1951) J. Bio. Chem. 193:265-75) against a standard curve constructed using bovine serum albumin. Mitochondrial incubations and all subsequent steps were performed in the dark. One mg of mitochondrial protein was suspended in 1 mL of mitochondrial respiration buffer (Tompkins, et al. (2005) supra) containing respiratory substrates glutamate (5 mM), malate (2.5 mM) and succinate (5 mM). […]"}}, "data": [{"smiles": "CC(S)C(=O)NCC(=O)O", "note": "(stereo not drawn) [2-Mercaptopropionylglycine]", "values": [{"measurement": "cell entry and mitochondrial accumulation", "setting": "[1]", "value": "readily enters cells and accumulates in mitochondria"}]}, {"smiles": "NCCN(CCN)/[N+]([O-])=N/O", "note": "[DETA-NONOate]", "values": [{"measurement": "S-nitrosation of mitochondrial protein, comparison of NO* donors", "setting": "[2]", "value": "S-nitrosoglutathione resulted in far more S-nitrosation than DETA-NONOate"}]}, {"smiles": "O=NOO", "note": "[ONOO^−, peroxynitrite]", "values": [{"measurement": "S-nitrosation of mitochondrial protein, comparison of NO* donors", "setting": "[2]", "value": "S-nitrosoglutathione resulted in far more S-nitrosation than DETA-NONOate or ONOO^−"}]}, {"smiles": "CC(SN=O)C(=O)NCC(=O)O", "note": "(stereo not drawn) [S-nitroso-2-mercaptopropylglycine]", "values": [{"measurement": "protection of cardiomyocyte viability from ischemia-reperfusion injury", "setting": "[3]", "value": "significant protection of cardiomyocytes from ischemia-reperfusion injury"}, {"measurement": "S-nitrosation of mitochondrial proteins compared with S-nitrosoglutathione", "setting": "[2]; same concentrations, 10-100 μM", "value": "much greater degree of S-nitrosation of mitochondrial proteins than did S-nitrosoglutathione"}]}, {"smiles": "N[C@@H](CCC(=O)N[C@@H](CSN=O)C(=O)NCC(=O)O)C(=O)O", "note": "[S-nitrosoglutathione]", "values": [{"measurement": "concentration at which total S-nitrosothiol (free plus protein-bound) approaches saturation", "setting": "[4]; 10 μM to 1 mM", "value": "~300", "unit": "µM"}, {"measurement": "total S-nitrosothiol", "setting": "[4]; 100 μM treatment", "value": "~1700 pmol/mg mitochondrial protein"}, {"measurement": "concentrations at which secondary reactions such as free S-nitrosothiol or NO2− formation were observed", "setting": "[4]; isolated mitochondria", "value": "above 250 μM"}, {"measurement": "complex I inhibition and its reversibility", "setting": "[5]", "value": "complex I inhibition that was reversible by exposure of mitochondria to light"}, {"measurement": "concentration at which formation of protein bound S-nitrosothiol saturates", "setting": "[2]; biotin-switch and chemiluminescent data together", "value": "~250", "unit": "µM"}, {"measurement": "concentration at which plateau of mitochondrial protein S-nitrosation is reached", "setting": "[2]; dose response over the range 50-250 μM", "value": "~200", "unit": "µM"}, {"measurement": "S-nitrosation of mitochondrial protein, comparison of NO* donors", "setting": "[2]", "value": "far more S-nitrosation than DETA-NONOate or ONOO^−"}]}]}
